Test results as given in article PMC10303271, “Synthesis and Receptor Binding Studies of α5 GABAAR Selective Novel Imidazodiazepines Targeted for Psychiatric and Cognitive Disorders” (Molecules, 2023).

Experiments:
[1] = system: Ca channel human; experiment: PDSP primary binding Ca channel; conditions: primary binding, 10,000 nM; last figure of the line = mean of the 4 before it
Procedure: (§1) To determine if any off-target receptor-binding effects are present, all the novel ligands were sent to the National Institute of Mental Health (NIMH), Psychoactive Drug Screening Program (PDSP). The ligands were screened over a panel of 47 receptors, ion channels, and transporters to determine any other possible interactions with […]. The hERG-binding was also determined. […] No binding of the test compounds to calcium channels was observed. […] It is necessary to screen the compounds for hERG-binding during the early process of drug discovery. The unintentional binding of many drugs to hERG can cause blockade of hERG K+ channels in the heart, which can cause many side effects including cardiac arrhythmias and sudden death. […] All of the α5 imidazodiazepines were tested for hERG-binding.
(§2) The NIMH PDSP assay protocol book [https://kidbdev.med.unc.edu/databases/PDSP%20Protocols%20II%202013-03-28.pdf accessed on 23 April 2023]. describes the protocols for primary and secondary radio-ligand binding assays. These assays were carried out in a final volume of 125 µL per well in the appropriate binding buffer.
(§3) The binding of a ligand to a receptor, ion channel, or transporter was determined in the […] of 10 µM of the appropriate reference compound. […] Plates were incubated in the dark for 90 min at rt, and the reactions were stopped by vacuum filtration onto 0.3% polyethyleneimine (PEI) soaked 96-well filter mats using a 96-well Filtermateharvester. This was followed by three washes with cold PBS buffer. Radioactivity was then counted on a Microbeta counter. Nonlinear regression was used to analyze the data with N = 6 replicates.

[2] = target: T1, 5-HT4 (Homo sapiens, UniProt Q13639); experiment: PDSP primary binding 5-HT4; conditions: 1.5 h; primary binding, 10,000 nM; last figure of the line = mean of the 4 before it; read-out: 5-HT4, PDSP raw data, mean
T1 construct: purchased NIMH Psychoactive Drug Screening Program (PDSP)
T1 sequence (Q13639 whole entry): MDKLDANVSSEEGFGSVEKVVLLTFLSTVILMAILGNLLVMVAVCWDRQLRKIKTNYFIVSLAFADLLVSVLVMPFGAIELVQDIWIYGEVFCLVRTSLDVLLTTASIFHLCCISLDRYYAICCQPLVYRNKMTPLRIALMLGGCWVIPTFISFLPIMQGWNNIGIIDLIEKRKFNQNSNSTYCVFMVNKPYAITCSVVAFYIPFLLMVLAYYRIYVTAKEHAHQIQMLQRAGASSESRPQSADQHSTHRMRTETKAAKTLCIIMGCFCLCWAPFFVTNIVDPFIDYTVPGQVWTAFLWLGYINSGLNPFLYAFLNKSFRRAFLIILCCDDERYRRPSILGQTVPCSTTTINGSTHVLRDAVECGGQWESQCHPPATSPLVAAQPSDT
Procedure: as §1, §2, §3

[3] = target: T2, 5-HT5A (Homo sapiens, UniProt P47898); experiment: PDSP primary binding 5-HT5A; conditions: 1.5 h; primary binding, 10,000 nM; last figure of the line = mean of the 4 before it; read-out: 5-HT5A, PDSP raw data, mean
T2 construct: purchased NIMH Psychoactive Drug Screening Program (PDSP)
T2 sequence (P47898 whole entry): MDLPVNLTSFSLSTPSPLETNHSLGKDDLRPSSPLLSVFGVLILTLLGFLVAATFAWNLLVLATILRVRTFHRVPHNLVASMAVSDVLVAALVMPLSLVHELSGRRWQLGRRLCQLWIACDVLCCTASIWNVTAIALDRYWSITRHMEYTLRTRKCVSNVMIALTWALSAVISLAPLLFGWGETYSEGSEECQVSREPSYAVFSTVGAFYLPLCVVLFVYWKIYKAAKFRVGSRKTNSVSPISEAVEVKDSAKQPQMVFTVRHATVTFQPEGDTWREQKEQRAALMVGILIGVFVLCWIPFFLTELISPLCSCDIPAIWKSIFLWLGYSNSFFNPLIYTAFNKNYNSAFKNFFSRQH
Procedure: as §1, §2, §3

[4] = target: T3, Alpha2C (Homo sapiens, UniProt P18825); experiment: PDSP primary binding Alpha2C; conditions: 1.5 h; primary binding, 10,000 nM; last figure of the line = mean of the 4 before it; read-out: Alpha2C, PDSP raw data, mean
T3 construct: purchased NIMH Psychoactive Drug Screening Program (PDSP)
T3 sequence (P18825 1-462): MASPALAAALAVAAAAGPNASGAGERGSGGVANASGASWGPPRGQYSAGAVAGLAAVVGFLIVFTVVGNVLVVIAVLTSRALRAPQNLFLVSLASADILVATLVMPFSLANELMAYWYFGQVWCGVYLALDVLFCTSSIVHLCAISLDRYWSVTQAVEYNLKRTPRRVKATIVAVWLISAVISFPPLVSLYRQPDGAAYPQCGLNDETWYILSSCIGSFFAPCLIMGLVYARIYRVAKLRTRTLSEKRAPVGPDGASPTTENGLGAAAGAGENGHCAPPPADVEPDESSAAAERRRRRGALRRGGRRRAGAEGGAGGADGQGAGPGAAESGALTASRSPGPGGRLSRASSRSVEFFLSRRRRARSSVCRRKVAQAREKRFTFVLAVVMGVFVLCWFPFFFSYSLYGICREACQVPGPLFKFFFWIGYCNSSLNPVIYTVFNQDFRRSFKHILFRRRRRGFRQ
Procedure: as §1, §2, §3

[5] = target: T4, D3 (Homo sapiens, UniProt P35462); experiment: PDSP primary binding D3; conditions: 1.5 h; primary binding, 10,000 nM; last figure of the line = mean of the 4 before it; read-out: D3, PDSP raw data, mean
T4 construct: purchased NIMH Psychoactive Drug Screening Program (PDSP)
T4 sequence (P35462 whole entry): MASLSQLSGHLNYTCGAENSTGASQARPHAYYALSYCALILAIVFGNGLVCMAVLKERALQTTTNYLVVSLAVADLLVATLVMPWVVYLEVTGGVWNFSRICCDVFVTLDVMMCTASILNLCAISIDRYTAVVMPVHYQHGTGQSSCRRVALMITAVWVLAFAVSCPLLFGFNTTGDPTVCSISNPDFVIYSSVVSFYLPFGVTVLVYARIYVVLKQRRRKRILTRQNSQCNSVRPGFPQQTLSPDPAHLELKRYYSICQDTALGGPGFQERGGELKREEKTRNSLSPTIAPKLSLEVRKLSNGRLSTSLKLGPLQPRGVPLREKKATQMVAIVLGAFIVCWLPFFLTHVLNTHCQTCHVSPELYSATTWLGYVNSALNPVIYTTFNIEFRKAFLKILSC
Procedure: as §1, §2, §3

[6] = system: NR2B; experiment: PDSP primary binding NR2B; conditions: primary binding, 10,000 nM; last figure of the line = mean of the 4 before it
Procedure: as §1, §2, §3

[7] = target: T5, HCA2 (Homo sapiens, UniProt Q8TDS4); experiment: PDSP primary binding HCA2; conditions: primary binding, 10,000 nM; last figure of the line = mean of the 4 before it; read-out: HCA2, PDSP raw data, mean
T5 construct: purchased NIMH Psychoactive Drug Screening Program (PDSP)
T5 sequence (Q8TDS4 whole entry): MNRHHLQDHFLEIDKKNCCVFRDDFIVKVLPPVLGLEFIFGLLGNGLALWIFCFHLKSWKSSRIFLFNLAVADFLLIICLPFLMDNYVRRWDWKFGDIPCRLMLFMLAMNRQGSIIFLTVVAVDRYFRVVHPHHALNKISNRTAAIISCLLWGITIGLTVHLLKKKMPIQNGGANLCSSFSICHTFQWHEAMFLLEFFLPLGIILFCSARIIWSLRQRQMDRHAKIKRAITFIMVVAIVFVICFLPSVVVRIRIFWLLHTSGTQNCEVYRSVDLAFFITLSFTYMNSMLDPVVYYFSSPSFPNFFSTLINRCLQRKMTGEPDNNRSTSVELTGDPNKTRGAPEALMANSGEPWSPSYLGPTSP
Procedure: as §1, §2, §3

[8] = target: T6, M4 D (Homo sapiens, UniProt P08173, A203G/Y113C); experiment: PDSP primary binding M4 D; conditions: primary binding, 10,000 nM; last figure of the line = mean of the 4 before it; read-out: M4 D, PDSP raw data, mean
T6 construct: purchased NIMH Psychoactive Drug Screening Program (PDSP)
T6 sequence (P08173 1-479 Y113C/A203G): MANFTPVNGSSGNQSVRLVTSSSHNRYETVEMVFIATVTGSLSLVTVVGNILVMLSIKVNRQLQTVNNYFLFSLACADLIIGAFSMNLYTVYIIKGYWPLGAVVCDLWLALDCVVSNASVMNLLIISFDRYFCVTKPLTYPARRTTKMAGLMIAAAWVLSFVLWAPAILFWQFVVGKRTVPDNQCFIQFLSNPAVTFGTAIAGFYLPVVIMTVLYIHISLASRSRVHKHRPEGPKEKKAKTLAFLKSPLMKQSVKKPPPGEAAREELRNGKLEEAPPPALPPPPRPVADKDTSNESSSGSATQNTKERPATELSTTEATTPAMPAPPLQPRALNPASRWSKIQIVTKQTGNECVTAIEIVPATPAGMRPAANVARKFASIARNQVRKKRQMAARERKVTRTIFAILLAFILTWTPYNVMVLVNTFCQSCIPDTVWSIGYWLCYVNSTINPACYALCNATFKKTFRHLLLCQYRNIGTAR
Procedure: as §1, §2, §3

[9] = target: T7, NTS1 (Homo sapiens, UniProt P30989); experiment: PDSP primary binding NTS1; conditions: primary binding, 10,000 nM; last figure of the line = mean of the 4 before it; read-out: NTS1, PDSP raw data, mean
T7 construct: purchased NIMH Psychoactive Drug Screening Program (PDSP)
T7 sequence (P30989 whole entry): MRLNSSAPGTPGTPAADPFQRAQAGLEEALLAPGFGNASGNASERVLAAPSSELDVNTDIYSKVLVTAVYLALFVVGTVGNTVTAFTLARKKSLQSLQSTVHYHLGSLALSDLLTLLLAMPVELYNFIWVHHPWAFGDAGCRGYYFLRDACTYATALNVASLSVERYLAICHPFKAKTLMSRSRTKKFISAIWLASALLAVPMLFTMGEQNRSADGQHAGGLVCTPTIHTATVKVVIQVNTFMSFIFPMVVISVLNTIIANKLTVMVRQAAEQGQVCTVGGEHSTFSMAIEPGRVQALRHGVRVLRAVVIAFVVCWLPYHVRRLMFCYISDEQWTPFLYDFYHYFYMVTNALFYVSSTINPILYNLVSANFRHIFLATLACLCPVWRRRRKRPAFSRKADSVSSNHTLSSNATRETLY
Procedure: as §1, §2, §3

[10] = target: T8, Alpha2Beta4 (Rattus norvegicus, UniProt P12389+P12392); experiment: PDSP primary binding Alpha2Beta4; conditions: primary binding, 10,000 nM; last figure of the line = mean of the 4 before it; read-out: Alpha2Beta4, PDSP raw data, mean
T8 construct: purchased NIMH Psychoactive Drug Screening Program (PDSP)
T8 sequence (P12389 28-511): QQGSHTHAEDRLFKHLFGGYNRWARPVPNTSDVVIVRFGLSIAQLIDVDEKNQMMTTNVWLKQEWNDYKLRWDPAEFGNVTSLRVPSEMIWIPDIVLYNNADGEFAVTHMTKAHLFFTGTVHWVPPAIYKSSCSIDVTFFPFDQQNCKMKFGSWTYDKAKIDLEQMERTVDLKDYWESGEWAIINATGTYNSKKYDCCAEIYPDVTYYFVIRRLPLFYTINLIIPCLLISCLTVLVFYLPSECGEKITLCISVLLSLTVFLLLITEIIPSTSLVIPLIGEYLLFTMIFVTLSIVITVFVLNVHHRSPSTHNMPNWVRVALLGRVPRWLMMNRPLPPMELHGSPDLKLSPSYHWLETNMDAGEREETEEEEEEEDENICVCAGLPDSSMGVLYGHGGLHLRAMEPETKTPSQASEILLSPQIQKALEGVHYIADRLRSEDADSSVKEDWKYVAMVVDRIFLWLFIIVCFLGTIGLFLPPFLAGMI
T8 sequence (P12392 21-495): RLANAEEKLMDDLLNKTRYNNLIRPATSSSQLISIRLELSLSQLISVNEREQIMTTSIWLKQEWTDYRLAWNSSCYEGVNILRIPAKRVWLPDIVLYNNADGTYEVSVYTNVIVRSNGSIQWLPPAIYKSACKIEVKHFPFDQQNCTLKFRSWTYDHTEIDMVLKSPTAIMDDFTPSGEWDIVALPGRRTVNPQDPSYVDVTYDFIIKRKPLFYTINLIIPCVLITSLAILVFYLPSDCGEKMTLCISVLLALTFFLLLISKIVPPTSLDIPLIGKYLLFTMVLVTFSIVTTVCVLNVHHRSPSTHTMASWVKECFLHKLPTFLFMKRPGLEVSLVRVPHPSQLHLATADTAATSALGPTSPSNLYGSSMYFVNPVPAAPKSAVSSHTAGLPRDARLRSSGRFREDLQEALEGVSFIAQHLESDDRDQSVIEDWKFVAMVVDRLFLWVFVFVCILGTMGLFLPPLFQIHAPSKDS
Procedure: as §1, §2, §3

[11] = target: T9, Alpha3Beta2 (Rattus norvegicus, UniProt P04757+P12390); experiment: PDSP primary binding Alpha3Beta2; conditions: primary binding, 10,000 nM; last figure of the line = mean of the 4 before it; read-out: Alpha3Beta2, PDSP raw data, mean
T9 construct: purchased NIMH Psychoactive Drug Screening Program (PDSP)
T9 sequence (P04757 26-499): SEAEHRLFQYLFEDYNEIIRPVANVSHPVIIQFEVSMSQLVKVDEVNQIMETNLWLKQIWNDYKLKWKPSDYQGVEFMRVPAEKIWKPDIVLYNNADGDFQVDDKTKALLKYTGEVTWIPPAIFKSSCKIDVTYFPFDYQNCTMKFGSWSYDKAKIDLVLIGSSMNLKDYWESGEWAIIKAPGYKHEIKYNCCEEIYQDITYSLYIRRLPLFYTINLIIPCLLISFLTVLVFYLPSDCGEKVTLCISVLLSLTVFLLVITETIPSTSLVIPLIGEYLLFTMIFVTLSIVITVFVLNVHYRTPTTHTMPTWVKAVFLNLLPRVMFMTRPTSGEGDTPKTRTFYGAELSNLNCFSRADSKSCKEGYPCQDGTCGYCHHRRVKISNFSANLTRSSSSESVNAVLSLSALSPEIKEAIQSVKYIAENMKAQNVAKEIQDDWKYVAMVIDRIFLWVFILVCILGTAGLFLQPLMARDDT
T9 sequence (P12390 25-500): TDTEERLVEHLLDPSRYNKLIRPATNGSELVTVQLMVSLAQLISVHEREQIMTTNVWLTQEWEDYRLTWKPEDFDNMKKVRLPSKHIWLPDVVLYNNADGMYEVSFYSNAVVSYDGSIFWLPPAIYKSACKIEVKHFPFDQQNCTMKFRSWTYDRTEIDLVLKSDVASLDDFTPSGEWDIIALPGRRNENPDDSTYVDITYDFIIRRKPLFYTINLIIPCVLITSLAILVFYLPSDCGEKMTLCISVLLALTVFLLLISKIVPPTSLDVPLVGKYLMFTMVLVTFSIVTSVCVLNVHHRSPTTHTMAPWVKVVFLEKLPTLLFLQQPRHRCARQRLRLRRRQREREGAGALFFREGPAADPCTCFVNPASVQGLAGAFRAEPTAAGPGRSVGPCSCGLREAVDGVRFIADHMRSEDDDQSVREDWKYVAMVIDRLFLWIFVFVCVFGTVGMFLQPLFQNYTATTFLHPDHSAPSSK
Procedure: as §1, §2, §3

Structure (SMILES) | Ca channel human, PDSP raw data, mean [1] [%] | inhibition at 10 µM [2] [%] | inhibition at 10 µM [3] [%] | inhibition at 10 µM [4] [%] | inhibition at 10 µM [5] [%] | NR2B, PDSP raw data, mean [6] [%] | inhibition at 10 µM [7] [%] | inhibition at 10 µM [8] [%] | inhibition at 10 µM [9] [%] | inhibition at 10 µM [10] [%] | inhibition at 10 µM [11] [%]
C#Cc1ccc2c(c1)C(c1ccccc1Cl)=N[C@H](C)c1c(C(=O)NC)ncn1-2 [Compound 21, (R)-6-(2′-Chlorophenyl)-8-ethynyl-N,4-dimethyl-4H-benzo[f]imidazo[1,5-a][1,4]diazepine-3-carboxamide] | 9.85 | 4 | 2.76 | -1.39 | 6.19 | -8.82 | 35.7 | 1.13 | -25.2 | 7.67 | 3.21
C#Cc1ccc2c(c1)C(c1ccccc1Cl)=N[C@H](C)c1c(C(=O)N(C)CC)ncn1-2 [Compound 29] | 22.67 | -6.11 | -3.73 | 19.9 | 13 | -14.08 | -26.3 | 46.2 | -19.5 | 3.06 | 3.52
CCc1noc(-c2ncn3c2[C@@H](C)N=C(c2ccccc2F)c2cc(Cl)ccc2-3)n1 [Compound 36, (R)-5-(8-Chloro-6-(2′-fluorophenyl)-4-methyl-4H-benzo[f]imidazo[1,5-a][1,4]diazepin-3-yl)-3-ethyl-1,2,4-oxadiazole] | 16.74 | -12.3 | -1.84 | 1.43 | 4.97 | 14.42 | -29.3 | 26.6 | -16.9 | 10.9 | 6.01
